Reference: patent US20230219965A1 (KSQ Therapeutics, Inc., priority 2020, published 2023)
Read-outs that look alike come from different tables or passages of the source.

Legend:
[1] = ADME solubility determination in PBS at pH 2.0 and pH 7.4; assay type: physicochemical; settings: phosphate buffered saline, 25 °C, thermodynamic from solid
Outline: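 Solubility was read by LC-MS/MS on centrifuged supernatants, calibrated to a known-concentration standard and corrected for dilution. Compound, dried down from 10 mM DMSO stock, was equilibrated 24 h at 25° C with shaking in PBS at pH 2.0 or pH 7.4.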

[2] = Liver microsomal metabolic stability, rat liver microsomes (RLM); settings: rat, liver microsomes, t1/2 (min) in RLM, 1 μM compound, 1 mg/mL microsomes, NADPH
USP1/UAF1 enzyme = USP1/UAF1 enzyme (Homo sapiens, UniProt O94782); assay: USP1/UAF1 deubiquitination assay (ubiquitin-rhodamine 110 substrate); assay type: biochemical; settings: read-out: USP1 IC50 (Ub-Rho)
Outline: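 Cleavage of 150 nM ubiquitin-rhodamine 110 by 0.05 nM USP1/UAF1 was followed as fluorescence (Ex480/Em540, kinetic, 30 min) in Tris-HCl pH 7.8 buffer with EDTA, BSA, DTT and Tween-20. Compounds, top 10 μM, were preincubated with enzyme 10 min; % inhibition against no-enzyme and DMSO wells gave four-parameter IC50s.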

[3] = tested on: Ub-PCNA levels in the nucleus of ES2 cells (USP1 activity); assay: ES2 Ub-PCNA immunofluorescence (IF) assay; assay type: cell-based; settings: Homo sapiens, ES-2; ES2 cells, 3 hours, Ub-PCNA immunofluorescence; read-out: USP1 IC50 (Ub-PCNA)
Outline: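 AC50 derived from percent Ub-PCNA-positive nuclei, positivity set by a 95% cutoff from untreated-well intensities. Readout by imaging immunofluorescence (anti-Ub-PCNA, DAPI nuclear mask) after methanol fixation. Compound exposure: 3 h at 37° C, 0.3% DMSO final, on cells plated overnight.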

[4] = Liver microsomal metabolic stability, human liver microsomes (HLM); settings: human, liver microsomes
[5] = pH 2, aqueous buffer, PBS pH 2.0, 25° C., read-out: Solubility at pH 2.0
[6] = pH 7.4, aqueous buffer, PBS pH 7.4, 25° C., read-out: Solubility at pH 7.4

Chain of USP1/UAF1 enzyme (O94782 whole entry): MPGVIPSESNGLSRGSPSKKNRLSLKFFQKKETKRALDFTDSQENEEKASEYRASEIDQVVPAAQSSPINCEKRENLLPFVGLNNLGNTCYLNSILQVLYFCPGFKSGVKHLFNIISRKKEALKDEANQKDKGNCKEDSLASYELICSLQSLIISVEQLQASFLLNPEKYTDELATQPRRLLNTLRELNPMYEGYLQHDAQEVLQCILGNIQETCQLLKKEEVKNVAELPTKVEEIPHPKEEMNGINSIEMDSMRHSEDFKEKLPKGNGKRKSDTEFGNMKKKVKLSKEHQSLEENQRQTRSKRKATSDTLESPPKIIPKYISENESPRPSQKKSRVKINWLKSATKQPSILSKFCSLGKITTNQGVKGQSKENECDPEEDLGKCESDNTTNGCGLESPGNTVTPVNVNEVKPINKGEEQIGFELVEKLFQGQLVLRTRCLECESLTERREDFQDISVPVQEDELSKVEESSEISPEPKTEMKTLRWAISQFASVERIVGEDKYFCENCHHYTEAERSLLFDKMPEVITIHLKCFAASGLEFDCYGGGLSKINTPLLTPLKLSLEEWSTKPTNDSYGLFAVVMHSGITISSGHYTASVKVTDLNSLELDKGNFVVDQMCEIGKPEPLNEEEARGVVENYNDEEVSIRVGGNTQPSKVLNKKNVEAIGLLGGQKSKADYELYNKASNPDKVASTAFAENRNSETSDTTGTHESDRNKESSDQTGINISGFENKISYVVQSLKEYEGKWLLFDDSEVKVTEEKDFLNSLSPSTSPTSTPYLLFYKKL
Chain of USP1/UAF1 enzyme (Q8TAF3 whole entry partner): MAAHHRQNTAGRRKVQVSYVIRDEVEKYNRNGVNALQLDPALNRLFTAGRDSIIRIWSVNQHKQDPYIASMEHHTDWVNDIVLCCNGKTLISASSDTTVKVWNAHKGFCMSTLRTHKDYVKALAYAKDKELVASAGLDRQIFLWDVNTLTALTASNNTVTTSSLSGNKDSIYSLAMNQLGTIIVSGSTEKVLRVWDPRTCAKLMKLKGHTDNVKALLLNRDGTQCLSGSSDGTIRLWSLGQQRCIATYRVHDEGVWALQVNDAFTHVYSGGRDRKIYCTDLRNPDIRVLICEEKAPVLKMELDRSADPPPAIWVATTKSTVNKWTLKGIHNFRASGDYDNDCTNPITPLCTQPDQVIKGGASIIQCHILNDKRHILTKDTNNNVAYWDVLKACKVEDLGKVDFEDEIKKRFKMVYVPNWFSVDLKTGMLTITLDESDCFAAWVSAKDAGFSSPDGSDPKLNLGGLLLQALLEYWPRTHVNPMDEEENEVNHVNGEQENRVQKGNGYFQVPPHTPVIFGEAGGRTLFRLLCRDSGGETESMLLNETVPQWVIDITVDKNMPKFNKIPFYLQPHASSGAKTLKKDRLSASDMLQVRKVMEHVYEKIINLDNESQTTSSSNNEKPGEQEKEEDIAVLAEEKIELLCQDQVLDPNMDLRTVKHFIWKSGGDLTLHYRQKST

Row | solubility at 24 h [1, 5] | solubility at 24 h [1, 6] | half-life at 1 μM [2] | IC50 (USP1/UAF1 enzyme) | IC50 [3] | half-life at 1 μM [4] | Structure (SMILES)
1 | ≥ 10 µM | < 10 µM | < 25 min | < 100 nM | < 100 nM | < 25 min | Cc1cnn(C(C)C)c1-c1cc2n(n1)CCCN2Cc1ccc(-c2nc(C(F)(F)F)cn2C(C)C)cc1 [Example 54]
2 | ≥ 10 µM | < 10 µM | < 25 min | < 100 nM | < 100 nM | < 25 min | Cc1cnn(C(C)C)c1-c1cc2n(n1)CCCN2Cc1ccc(-c2nc(C(F)(F)F)cn2C)c(F)c1 [Example 55]
3 | < 10 µM | < 10 µM | < 25 min | < 100 nM | < 100 nM | < 25 min | COc1cc(C(F)(F)F)nn1-c1ccc(CN2CCCn3nc(-c4c(C)cnn4C(C)C)cc32)cc1F [Example 57]
4 | ≥ 10 µM | < 10 µM | < 25 min | < 100 nM | < 100 nM | < 25 min | COc1ncnc(C2CC2)c1-c1cc2n(n1)CCCN2Cc1ccc(-c2nc(C(F)(F)F)cn2C(C)C)cc1 [Example 58]
5 | < 10 µM | < 10 µM | < 25 min | < 100 nM | < 100 nM | < 25 min | CC(C)n1cc(C(F)(F)F)nc1-c1ccc(CN2CCCn3nc(-c4c(Cl)cnn4C(C)C)cc32)cc1F [Example 59]
6 | < 10 µM | < 10 µM | < 25 min | < 100 nM | < 100 nM | < 25 min | CC(C)n1ncc(Cl)c1-c1cc2n(n1)CCCN2Cc1ccc(-c2nc(C(F)(F)F)cn2C)c(F)c1 [Example 61]
7 | < 10 µM | < 10 µM | < 25 min | < 100 nM | < 100 nM | < 25 min | CC(C)n1ncc(Cl)c1-c1cc2n(n1)CCCN2Cc1ccc(-c2nc(C(F)(F)F)cn2CCF)cc1 [Example 62]
8 | ≥ 10 µM | < 10 µM | < 25 min | < 100 nM | < 100 nM | < 25 min | COc1ncnc(C2CC2)c1-c1cc2n(n1)CCCN2Cc1ccc(-c2nc(C(F)(F)F)cn2C(C)C)c(F)c1 [Example 63]
9 | ≥ 10 µM | < 10 µM | < 25 min | < 100 nM | < 100 nM | < 25 min | CCn1cc(C(F)(F)F)nc1-c1ccc(CN2CCCn3nc(-c4c(OC)ncnc4C4CC4)cc32)cc1F [Example 64]
10 | < 10 µM | < 10 µM | < 25 min | < 100 nM | < 100 nM | < 25 min | CCn1cc(C(F)(F)F)nc1-c1ccc(C(C)N2CCCn3nc(-c4c(Cl)cnn4C(C)C)cc32)cc1 (stereo not drawn) [Example 65]
11 | ≥ 10 µM | < 10 µM | < 25 min | < 100 nM | < 100 nM | < 25 min | CCn1cc(C(F)(F)F)nc1-c1ccc(C(C)N2CCCn3nc(-c4c(OC)ncnc4C4CC4)cc32)cc1 (stereo not drawn) [Example 66]
12 | < 10 µM | < 10 µM | < 25 min | 100 to 500 nM | > 500 nM | < 25 min | Cc1cnn(C(C)C)c1-c1cc2n(n1)CCC(=O)N2Cc1ccc(-c2nc(C(F)(F)F)c[nH]2)cc1 [Example 70]
13 | < 10 µM | < 10 µM | > 25 min | < 100 nM | < 100 nM | > 25 min | CCn1cc(C(F)(F)F)nc1-c1ccc(CN2C(=O)CCn3nc(-c4c(OC)ncnc4C4CC4)cc32)cc1 [Example 71, 2-(4-cyclopropyl-6-methoxypyrimidin-5-yl)-4-(4-(1-ethyl-4-(trifluoromethyl)-1H-imidazol-2-yl)benzyl)-6,7-dihydropyrazolo[1,5-α]pyrimidin-5(4H)-one]
14 | < 10 µM | < 10 µM | > 25 min | < 100 nM | 100 to 500 nM | > 25 min | COc1ncnc(C2CC2)c1-c1cc2n(n1)CCC(=O)N2Cc1ccc(-c2nc(C(F)(F)F)cn2C(C)C)cc1 [Example 72]
15 | < 10 µM | < 10 µM | < 25 min | < 100 nM | 100 to 500 nM | < 25 min | Cc1cnn(C(C)C)c1-c1cc2n(n1)CCC(=O)N2Cc1ccc(-c2nc(C(F)(F)F)cn2C(C)C)cc1 [Example 73]
16 | < 10 µM | < 10 µM | > 25 min | < 100 nM | < 100 nM | > 25 min | CCn1cc(C(F)(F)F)nc1-c1ccc(CN2C(=O)CCn3nc(-c4c(OC)ncnc4C4CC4)cc32)cc1F [Example 78]
17 | < 10 µM | < 10 µM | > 25 min | < 100 nM | < 100 nM | > 25 min | CC(C)n1ncc(Cl)c1-c1cc2n(n1)CCC(=O)N2Cc1ccc(-c2nc(C(F)(F)F)cn2CCF)cc1 [Example 79]
18 | < 10 µM | < 10 µM | > 25 min | < 100 nM | 100 to 500 nM | > 25 min | COc1ncnc(C2CC2)c1-c1cc2n(n1)CCC(=O)N2Cc1ccc(-n2nc(C(F)(F)F)cc2OC)cc1 [Example 80]
19 | < 10 µM | < 10 µM | > 25 min | < 100 nM | 100 to 500 nM | > 25 min | Cc1cc(C(F)(F)F)nn1-c1ccc(CN2C(=O)CCn3nc(-c4c(Cl)cnn4C(C)C)cc32)cc1 [Example 86]
20 | < 10 µM | < 10 µM | > 25 min | < 100 nM | < 100 nM | > 25 min | CC(C)n1cc(C(F)(F)F)nc1-c1ccc(CN2C(=O)CCn3nc(-c4c(Cl)cnn4C(C)C)cc32)cc1 [Example 91]
21 | < 10 µM | < 10 µM | > 25 min | < 100 nM | < 100 nM | > 25 min | COc1cc(C(F)(F)F)nn1-c1ccc(CN2C(=O)CCn3nc(-c4c(Cl)cnn4C(C)C)cc32)cc1 [Example 96]
22 | < 10 µM | < 10 µM | > 25 min | < 100 nM | < 100 nM | > 25 min | CCn1cc(C(F)(F)F)nc1-c1ccc(CN2C(=O)CCn3nc(-c4c(Cl)cnn4C(C)C)cc32)cc1 [Example 97]
23 | < 10 µM | < 10 µM | > 25 min | < 100 nM | < 100 nM | > 25 min | CC(C)n1ncc(Cl)c1-c1cc2n(n1)CCC(=O)N2Cc1ccc(-c2nc(C(F)(F)F)cn2C)cc1 [Example 98]
24 | < 10 µM | < 10 µM | > 25 min | < 100 nM | 100 to 500 nM | > 25 min | COc1ncnc(C2CC2)c1-c1cc2n(n1)CCC(=O)N2Cc1ccc(-n2nc(C(F)(F)F)cc2C)c(F)c1 [Example 103]
25 | < 10 µM | < 10 µM | > 25 min | < 100 nM | 100 to 500 nM | > 25 min | Cc1cc(C(F)(F)F)nn1-c1ccc(CN2C(=O)CCn3nc(-c4c(Cl)cnn4C(C)C)cc32)cc1F [Example 104]
26 | ≥ 10 µM | < 10 µM | > 25 min | < 100 nM | < 100 nM | > 25 min | COc1cc(CN2C(=O)CCn3nc(-c4c(OC)ncnc4C4CC4)cc32)ccc1-c1nc(C(F)(F)F)cn1C(C)C [Example 108]

Row | Structure (SMILES) | solubility at 24 h [1, 5] | solubility at 24 h [1, 6] | half-life at 1 μM [2] | IC50 (USP1/UAF1 enzyme) | IC50 [3] | half-life at 1 μM [4]
27 | COc1cccc(C)c1-c1cc2n(n1)CCCN2Cc1ccc(-c2nc(C(F)(F)F)cn2C)cc1 [Example 74, 2-(2-methoxy-6-methylphenyl)-4-(4-(1-methyl-4-(trifluoromethyl)-1H-imidazol-2-yl)benzyl)-4,5,6,7-tetrahydropyrazolo[1,5-α]pyrimidine] | ≥ 10 µM | < 10 µM | < 25 min | < 100 nM | > 500 nM | < 25 min
28 | COc1cccc(C)c1-c1cc2n(n1)CCC(=O)N2Cc1ccc(-c2nc(C(F)(F)F)cn2C)cc1 [Example 75, 2-(2-methoxy-6-methylphenyl)-4-(4-(1-methyl-4-(trifluoromethyl)-1H-imidazol-2-yl)benzyl)-6,7-dihydropyrazolo[1,5-α]pyrimidin-5(4H)-one] | ≥ 10 µM | < 10 µM | < 25 min | < 100 nM | 100 to 500 nM | < 25 min
